Test [1] relates to HCT-116 (colorectal carcinoma) cell line. Kind of test: CellTiter-Glo luminescent cell viability assay, HCT-116. The test is classed as cell-based, human. To be noted: Homo sapiens; for viability at 4 µM: HCT-116, compound at 4 μM; for viability at 4 µM / viability at 10 µM: 72 h; for viability at 10 µM: HCT-116, compound at 10 μM; for EC50: HCT-116 cell line, 72 h incubation, CellTiter-Glo, read-out: EC50, growth inhibition of HCT-116. The method, boiled down: (§1)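 Luminescent signal, normalised to diluent-treated cultures, defines % viability; EC50 is the concentration lowering it to 50%. Cells had been exposed to compound for 72 h at 37 °C in medium with 10% FBS, at a constant H2O or DMSO percentage.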
In general terms: In ATP-based viability assays light output follows the ATP content of the culture.

Test [2] concerns HepG2 (hepatocellular carcinoma) cell line. Briefly: CellTiter-Glo luminescent cell viability assay, HepG2. The note with it: Homo sapiens; for viability at 4 µM / viability at 10 µM: HepG2, HepG, 72 h; for viability at 4 µM: compound at 4 μM; for viability at 10 µM: compound at 10 μM; for EC50: HepG2 cell line, 72 h incubation, CellTiter-Glo, read-out: EC50, growth inhibition of HepG2. The test is classed as cell-based, human. The method, boiled down:
(§2)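 EC50 is the concentration cutting CellTiter-Glo luminescence to half that of H2O- or DMSO-treated controls after 72 h compound exposure, with each point in at least duplicate. HepG2, Huh7 and PANC-1 were seeded the night before; MOLM-14 1 h prior; all cultured with 10% FBS, 37 °C, 5% CO2.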

The subject of test [3] is 786-O (renal adenocarcinoma) cell line. Briefly: CellTiter-Glo luminescent cell viability assay, 786-O. The format is cell-based, human. The note with it: Homo sapiens, 786-0; for EC50: 786-O cell line, 72 h incubation, CellTiter-Glo, read-out: EC50, growth inhibition of 786-O; for viability at 4 µM / viability at 10 µM: 786-O, 72 h; for viability at 4 µM: compound at 4 μM; for viability at 10 µM: compound at 10 μM. The gist of the method:
as §1

Test [4] has as its system A375 (malignant melanoma) cell line. Kind of test: CellTiter-Glo luminescent cell viability assay, A375. The test is classed as cell-based, human. To be noted: Homo sapiens, A-375; for viability at 4 µM: A375, compound at 4 μM; for viability at 4 µM / viability at 10 µM: 72 h; for viability at 10 µM: A375, compound at 10 μM; for EC50: A375 cell line, 72 h incubation, CellTiter-Glo, read-out: EC50, growth inhibition of A375. The method, boiled down: as §1

Test [5] concerns MOLM-14 (acute myeloid leukemia) cell line. Briefly: CellTiter-Glo luminescent cell viability assay, MOLM-14. The format is cell-based, human. To be noted: Homo sapiens; for viability at 4 µM: MOLM-14, compound at 4 μM; for viability at 4 µM / viability at 10 µM: 72 h; for viability at 10 µM: MOLM-14, compound at 10 μM; for EC50: MOLM-14 cell line, 72 h incubation, CellTiter-Glo, read-out: EC50, growth inhibition of MOLM-14. The method, boiled down:
as §2

The test system of test [6] is Huh7 (hepatocellular carcinoma) cell line. Kind of test: CellTiter-Glo luminescent cell viability assay, Huh7. The test is classed as cell-based, human. The note with it: Homo sapiens, Huh-7; for viability at 4 µM: Huh7, compound at 4 μM; for viability at 4 µM / viability at 10 µM: 72 h; for viability at 10 µM: Huh7, compound at 10 μM; for EC50: Huh7 cell line, 72 h incubation, CellTiter-Glo, read-out: EC50, growth inhibition of Huh7. The gist of the method:
as §2

In test [7] the test system is PANC-1 (prancreatic carcinoma) cell line. Kind of test: CellTiter-Glo luminescent cell viability assay, PANC-1. The note with it: Homo sapiens; for viability at 4 µM: PANC-1, 4 μM; for viability at 4 µM / viability at 10 µM: 72 h, % of signal of diluent-treated cultures; for viability at 10 µM: PANC-1, 10 μM; for EC50: PANC-1 cell line, 72 h incubation, CellTiter-Glo, read-out: EC50 (growth inhibition assay of PANC-1 cell line). The format is cell-based. As to the method:
All cell lines were maintained in medium containing 1% penicillin-streptomycin (Dutscher, P06-07100) and 10% Fetal Bovine Serum (Hyclone Dutscher, RZK35922) cultured at 37° C. with 5% CO2. HepG2 (hepatocellular carcinoma), cell line was cultured in Dulbecco's modified Eagle's medium low glucose (Gibco, 21885025), Huh7 (hepatocellular carcinoma), HCT-116 (colorectal carcinoma), PANC-1 (prancreatic carcinoma) and A375 (malignant melanoma) cell lines were cultured in Dulbecco's modified Eagle's medium (Dutscher, L0103). MOLM-14 (acute myeloid leukemia) cell line was maintained in MEM alpha medium (Gibco, 22561-021). 786-0 (renal adenocarcinoma) cell lines were maintained in RPMI 1640 medium (Dutscher, L0498).
Cell viability was measured using the CellTiter-Glo® luminescent cell viability assay as described by the manufacturer (Promega, Ref G7571) using an Infinite F200Pro luminometer (Tecan). Briefly, for adherent cells, cells were plated onto 96-well plates (white with clear bottom) in 90 μL of media per well and were allowed to grow overnight before the assay. For cells growing in suspension, cells were plated onto 96-well plates 1 h before the assay.
Compounds were resuspended in H2O or DMSO and added at different concentrations to each well, and cell cultures were incubated for 72 h. Each diluent (H2O or DMSO) were used as a control, and all compounds were tested in a constant percentage of H2O or DMSO. On the day of the reading, plates are equilibrated 30 min at room temperature before the addition of 100 μL of CellTiter-Glo® and luminescence was measured using an Infinite F200Pro (Tecan). % cell viability were expressed as a percentage of the signal obtained for cell cultures treated with diluent. EC50 values were determined as the dose of compound required to reduce luminescent values to 50% of the signal obtained for cell cultures treated with diluent. The experimental data were analyzed using a computer program, Graphpad Prism v5 (GraphPad Software, Inc. La Jolla, Calif.). All points were at least done in duplicate.

One may read the viability as a read-out of living cells in per cent, often relative to untreated cells. By EC50 is commonly meant the concentration giving half of the maximal effect.

`CN1CCN(C2CCCN(c3c(C#N)c(NCc4ccc(Cl)cc4)nc4ccccc34)C2)CC1` (stereo not shown) [Compound 3168CN, 2-(4-chlorobenzylamino)-3-cyano-4-[3-(4-methylpiperazin-1-yl)piperidin-1-yl]quinoline]: the viability at 4 µM in test [1] came out at 40.7%; in test [2] it was 87.8%; in test [3] it was 75.4%; in test [4] it was 61%; in test [5], 105%; in test [6], 80.1%. Further, the viability at 4 µM in test [7] was 100%. Also, the viability at 10 µM worked out at 0.5% in test [1]; 0.6% in test [2]; 0.6% in test [3]; 0.8% in test [4]; 0.8% in test [5]; 0.7% in test [6]. Besides, the viability at 10 µM in test [7] worked out at 22.3%. In addition, the concentration for a half-maximal effect (EC50) was 0.5 to 5 µM in test [1]; 5 to 10 µM in test [2]; 0.5 to 5 µM in test [3]; 500 to 5000 nM in test [4]; 5 to 10 µM in test [5]; 0.5 to 5 µM in test [6]. Moreover, the EC50 in test [7] was 5 to 10 µM.

Turning to `N#Cc1c(NCc2ccc(Cl)cc2)nc2ccccc2c1N1CCCC(N2CCOCC2)C1` (stereo not shown) [Compound 178CN, 2-(4-chlorobenzylamino)-3-cyano-4-[3-(morpholino)piperidin-1-yl]quinoline], the viability at 4 µM is 95.7% in test [1]; 101% in test [2]; 99.6% in test [3]; 95.5% in test [4]; 123% in test [5]; 95.3% in test [6]. In addition, in test [7], the viability at 4 µM was 100%. Moreover, the viability at 10 µM in test [1] turned out to be 77%; in test [2], 97.5%; in test [3], 88.9%; in test [4], 90.2%; in test [5], 106%; in test [6] it was 81.9%. The viability at 10 µM in test [7] stood at 96.6%.

`N#Cc1c(NCc2ccc(Cl)cc2)nc2ccccc2c1N1CCC(NC2CCOCC2)C1` (stereo not shown) [Compound 136CN, 2-(4-chloro-benzylamino)-3-cyano-4-{3-[(tetrahydro-2H-pyran-4-yl)-amino]pyrroli-din-1-yl}quinoline]: the viability at 4 µM in test [1] turned out to be 73.3%; in test [2], 88.6%; in test [3], 75.7%; in test [4], 110%; in test [5], 95.7%; in test [6] it was 87.6%. The viability at 4 µM in test [7] was found to be 91.7%. Moreover, the viability at 10 µM was 17.4% in test [1]; 44.1% in test [2]; 21.8% in test [3]; 17.4% in test [4]; 32% in test [5]; 50.5% in test [6]. Further, in test [7], the viability at 10 µM was 63.6%.

On to `N#Cc1c(NCc2ccc(Cl)cc2)nc2ccccc2c1N1CCC(N2CCCC2)CC1` [Compound 200CN, 2-(4-chlorobenzylamino)-3-cyano-4-[4-(pyrrolidin-1-yl)piperidin-1-yl]quinoline], for which the viability at 4 µM was found to be 78.1% in test [1]; 90.8% in test [2]; 74.8% in test [3]; 65.9% in test [4]; 92.7% in test [5]; 83.1% in test [6]. Further, in test [7], the viability at 4 µM is 98.8%. For the same compound, the viability at 10 µM in test [1] was determined as 0.5%; in test [2] it was 0.9%; in test [3], 2.2%; in test [4], 0.4%; in test [5] it was 0.4%; in test [6], 0.7%. Also, the viability at 10 µM in test [7] came out at 60.8%. For the same compound, the EC50 in test [1] was 0.5 to 5 µM; in test [2], 5 to 10 µM; in test [3], 0.5 to 5 µM; in test [4], 500 to 5000 nM; in test [5] it was 0.5 to 5 µM; in test [6], 5 to 10 µM. For the same compound, in test [7], the concentration giving a half-maximal response (EC50) is 5 to 10 µM.

For the compound `CC(C)(C)NC1CCN(c2c(C#N)c(NCc3ccccc3)nc3ccccc23)CC1` [Compound 3286CN, 2-(benzylamino)-3-cyano-4-[4-(tert-butylamino)piperidin-1-yl]quinoline], the viability at 4 µM in test [1] is 7.6%; in test [2], 85%; in test [3] it was 73.5%; in test [4], 54.5%; in test [5], 90.4%; in test [6], 75.4%. The viability at 4 µM in test [7] is 101%. Besides, the viability at 10 µM was found to be 0.1% in test [1]; 0.4% in test [2]; 2.4% in test [3]; 0.2% in test [4]; 60.5% in test [5]; 0.4% in test [6]. For the same compound, the viability at 10 µM in test [7] turned out to be 54.8%. For the same compound, the EC50 was in the range of 5 to 10 µM in test [1]; 5 to 10 µM in test [2]; 5 to 10 µM in test [3]; 500 to 5000 nM in test [4]; 5 to 10 µM in test [5]; 5 to 10 µM in test [6]. Also, the EC50 in test [7] lay within 5 to 10 µM.

For `CNC1CCCN(c2c(C#N)c(NCc3ccc(Cl)cc3)nc3ccccc23)C1` (stereo not shown) [Compound 3158CN, 2-(4-chlorobenzylamino)-3-cyano-4-[3-(methylamino)piperidin-1-yl]quinoline], the viability at 4 µM in test [1] came out at 74.2%; in test [2], 84.6%; in test [3], 88.4%; in test [4], 70.9%; in test [5], 91.5%; in test [6] it was 86.4%. Also, the viability at 4 µM in test [7] was 107%. In addition, the viability at 10 µM is 0.4% in test [1]; 0.4% in test [2]; 0.5% in test [3]; 0.3% in test [4]; 0.6% in test [5]; 0.5% in test [6]. Also, the viability at 10 µM in test [7] came out at 53.1%. For the same compound, the EC50 in test [1] was 0.5 to 5 µM; in test [2], 0.5 to 5 µM; in test [3], 5 to 10 µM; in test [4], 500 to 5000 nM; in test [5] it was 5 to 10 µM; in test [6] it was 5 to 10 µM. Moreover, in test [7], the EC50 was 5 to 10 µM.

The record behind these values is patent US10577362B2, “Substituted 2, 4-diamino-quinoline derivatives for use in the treatment of proliferative diseases” (GENOSCIENCE PHARMA, priority 2016, dated 2020).
